Measurements: US10507228B2, “Methods and compositions related to KRAS inhibitors” (priority 2015, dated 2019)
Positions of bridges follow the written chain, without caps; N, C: chain ends. Non-standard residues stand in square brackets, D forms with d. Residues, ends and D or L forms follow the SMILES beside them. ξ: configuration not given here. ξK = NCCCCC(N)C(=O)O; ξA = CC(N)C(=O)O

Target: T1, mt G12D KRas binding to GST-RBD (Raf Ras binding domain) (Homo sapiens, UniProt P01116, G12D)
T1 construct: expressed in transfected cells; host or cells: NIH-3T3 cells (lysate)
Assay: GST-RBD pulldown assay
Details: lysates of NIH-3T3 cells that ectopically express G12D KRas; compared to DMSO control; FIG. 1B
Description: Several stapled peptides such as FY-A-100-1 and 2 have been made (see FIG. 1A) that were designed based on the helical domain (78-92, LHDCLMKALKVRGLQ) (SEQ ID NO. 1) of Raf RBD (Ras binding domain). The synthesis was conducted on solid phase. In GST-RBD pulldown assays, FY-A-100-1 was potent at inhibiting the ability of GST-RBD to bind mt G12D KRas from lysates of NIH-3T3 cells that ectopically express G12D KRas (FIG. 1B). […] Furthermore, FY-A-90-1A, which is identical to FY-A-100-1 except for having a “CH2” shorter side chain of residue 82 that forms the staple, was not active.

| Structure (SMILES) | inhibiting the ability of GST-RBD to bind mt G12D KRas |
| --- | --- |
| CSCC[C@@H]1NC(=O)[C@@H](NC(=O)[C@H](CS)NC(=O)[C@H](CC(=O)O)NC(=O)[C@H](Cc2cnc[nH]2)NC(=O)[C@@H](N)CC(C)C)CC(=O)NCCCC[C@@H](C(=O)NC(CCCCN)C(=O)N[C@H](C(=O)N[C@@H](CCCNC(=N)N)C(=O)NCC(=O)N[C@@H](CC(C)C)C(=O)N[C@@H](CCC(N)=O)C(N)=O)C(C)C)NC(=O)C(CCCCN)NC(=O)[C@H](CCCCN)NC1=O (stereo partly drawn) [FY-A-90-1A] (H-LHDCDMK[ξK]K[ξK]VRGLQ-NH2; lactam 5-9) | not active |
| CSCC[C@H](NC(=O)[C@H](CC(=O)O)NC(=O)[C@H](CS)NC(=O)[C@H](CC(=O)O)NC(=O)[C@H](Cc1cnc[nH]1)NC(=O)[C@@H](N)CC(C)C)C(=O)N[C@@H](CCCCN)C(=O)NC(CCCCN)C(=O)N[C@@H](CCCCN)C(=O)NC(CCCCN)C(=O)N[C@H](C(=O)N[C@@H](CCCNC(=N)N)C(=O)NCC(=O)N[C@@H](CC(C)C)C(=O)N[C@@H](CCC(N)=O)C(N)=O)C(C)C (stereo partly drawn) [FY-A-90-1B] (H-LHDCDMK[ξK]K[ξK]VRGLQ-NH2) | little activity |
| CSCC[C@@H]1NC(=O)[C@@H](NC(=O)[C@H](CS)NC(=O)[C@H](CC(=O)O)NC(=O)[C@H](Cc2cnc[nH]2)NC(=O)[C@@H](N)CC(C)C)CC(=O)NCCCC[C@@H](C(=O)NC(CCCCN)C(=O)N[C@H](C(=O)N[C@@H](CCCNC(=N)N)C(=O)NCC(=O)N[C@@H](CC(C)C)C(=O)N[C@@H](CCC(N)=O)C(N)=O)C(C)C)NC(=O)C(C)NC(=O)[C@H](CCCCN)NC1=O (stereo partly drawn) [FY-A-90-2A] (H-LHDCDMK[ξA]K[ξK]VRGLQ-NH2; lactam 5-9) | little activity |
| CSCC[C@H](NC(=O)[C@H](CC(=O)O)NC(=O)[C@H](CS)NC(=O)[C@H](CC(=O)O)NC(=O)[C@H](Cc1cnc[nH]1)NC(=O)[C@@H](N)CC(C)C)C(=O)N[C@@H](CCCCN)C(=O)NC(C)C(=O)N[C@@H](CCCCN)C(=O)NC(CCCCN)C(=O)N[C@H](C(=O)N[C@@H](CCCNC(=N)N)C(=O)NCC(=O)N[C@@H](CC(C)C)C(=O)N[C@@H](CCC(N)=O)C(N)=O)C(C)C (stereo partly drawn) [FY-A-90-2B] (H-LHDCDMK[ξA]K[ξK]VRGLQ-NH2) | little activity |
| CSCC[C@@H]1NC(=O)[C@@H](NC(=O)[C@H](CS)NC(=O)[C@H](CC(=O)O)NC(=O)[C@H](Cc2cnc[nH]2)NC(=O)[C@@H](N)CC(C)C)CCC(=O)NCCCC[C@@H](C(=O)N[C@@H](CCCCN)C(=O)N[C@H](C(=O)N[C@@H](CCCNC(=N)N)C(=O)NCC(=O)N[C@@H](CC(C)C)C(=O)N[C@@H](CCC(N)=O)C(N)=O)C(C)C)NC(=O)[C@H](CCCCN)NC(=O)[C@H](CCCCN)NC1=O [FY-A-100-1] (H-LHDCEMKKKKVRGLQ-NH2; lactam 5-9) | potent |
| CSCC[C@@H]1NC(=O)[C@@H](NC(=O)[C@H](CS)NC(=O)[C@H](CC(=O)O)NC(=O)[C@H](Cc2cnc[nH]2)NC(=O)[C@@H](N)CC(C)C)CCC(=O)NCCCC[C@@H](C(=O)N[C@@H](CCCCN)C(=O)N[C@H](C(=O)N[C@@H](CCCNC(=N)N)C(=O)NCC(=O)N[C@@H](CC(C)C)C(=O)N[C@@H](CCC(N)=O)C(N)=O)C(C)C)NC(=O)C(C)NC(=O)[C@H](CCCCN)NC1=O (stereo partly drawn) [FY-A-100-2] (H-LHDCEMK[ξA]KKVRGLQ-NH2; lactam 5-9) | less potent |
